What was measured:
Assay in all cases: relative viability (nuclei count vs DMSO), 5 days (fraction); higher = more cells survive
[1] = compound: CN1CCN(CC1)C2=CC(=C(C=C2)NC3=NC(=C(S3)C(=O)C4=C(C=CC=C4Cl)Cl)N)OC [XMD14-99] + Cc1nc(NC(=O)N2CCC[C@H]2C(N)=O)sc1-c1ccnc(C(C)(C)C(F)(F)F)c1 [Alpelisib] (partner 2 µM)
Outline: (§1)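 Five library-drug doses in √10 steps were combined with a fixed anchor-drug dose, or a single drug was given alone, by pin tool to lung cancer cell lines in 1536-well plates the day after seeding. Nuclei were stained and counted after 5 days. Relative viability is the nuclei count in treated wells over that in vehicle wells, taken as the median of duplicate plates.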

[2] = compound: N[C@@H]1CCCN(c2c(/C=C3\SC(=O)NC3=O)cccc2-c2ccccc2)C1 [AZD1208] + CC(C)C[C@H](NC(=O)[C@H](Cc1ccccc1)NC(=O)c1cnccn1)B(O)O [Bortezomib] (partner 0.002 µM)
Outline: as §1

[3] = compound: N[C@@H]1CCCN(c2c(/C=C3\SC(=O)NC3=O)cccc2-c2ccccc2)C1 [AZD1208] + C[C@]1(O)C[C@@H](c2nc(-c3ccc4ccc(-c5ccccc5)nc4c3)c3c(N)nccn32)C1 [Linsitinib] (partner 1 µM)
Outline: as §1

[4] = compound: CN1CCN(CC1)C2=CC(=C(C=C2)NC3=NC(=C(S3)C(=O)C4=C(C=CC=C4Cl)Cl)N)OC [XMD14-99] + O=C(c1cc(Cc2n[nH]c(=O)c3ccccc23)ccc1F)N1CCN(C(=O)C2CC2)CC1 [Olaparib] (partner 8 µM)
Outline: as §1

Row | Cell Line | relative viability ([1]; first compound 0.08 µM) | relative viability ([1]; first compound 0.8 µM) | relative viability ([1]; first compound 2.53 µM) | relative viability ([1]; first compound 8 µM) | relative viability ([2]; first compound 0.08 µM) | relative viability ([2]; first compound 0.253 µM) | relative viability ([2]; first compound 0.8 µM) | relative viability ([2]; first compound 2.53 µM) | relative viability ([2]; first compound 8 µM) | relative viability ([3]; first compound 0.08 µM) | relative viability ([3]; first compound 0.253 µM) | relative viability ([3]; first compound 0.8 µM) | relative viability ([3]; first compound 2.53 µM) | relative viability ([3]; first compound 8 µM) | relative viability ([4]; first compound 0.08 µM) | relative viability ([4]; first compound 0.8 µM) | relative viability ([4]; first compound 2.53 µM) | relative viability ([4]; first compound 8 µM)
1 | Calu-6 | 0.929 | 0.959 | 0.919 | 0.67 | 1.01 | 1.02 | 0.976 | 1.03 | 0.929 | 0.86 | 1.03 | 0.919 | 0.967 | 0.872 | 0.524 | 0.529 | 0.502 | 0.472
2 | NCI-H2009 | 1.14 | 1.13 | 1.13 | 0.968 | 1.01 | 1.09 | 0.968 | 0.832 | 1.02 | 1.22 | 1.13 | 1.18 | 1.14 | 1.12 | 0.662 | 0.835 | 0.656 | 0.538
3 | SK-LU-1 | 0.893 | 0.96 | 0.996 | 0.598 | 1.36 | 1.24 | 1.09 | 0.996 | 0.812 | 1 | 1.21 | 1.07 | 1.21 | 0.795 | 0.423 | 0.459 | 0.374 | 0.34
4 | NCI-H2347 | 0.995 | 0.984 | 0.958 | 0.572 | 0.933 | 0.734 | 0.822 | 0.791 | 1.08 | 0.936 | 0.94 | 0.91 | 0.942 | 0.909 | 0.557 | 0.568 | 0.601 | 0.446
5 | HCC-366 | 0.475 | 0.413 | 0.366 | 0.232 | 1.02 | 1.09 | 0.943 | 1.03 | 0.973 | 0.626 | 0.588 | 0.5 | 0.558 | 0.439 | 0.375 | 0.344 | 0.315 | 0.243
6 | EMC-BAC-2 | 0.728 | 0.767 | 0.74 | 0.619 | 1.15 | 1.16 | 1.05 | 1.02 | 0.919 | 0.848 | 0.818 | 0.747 | 0.815 | 0.796 | 0.507 | 0.483 | 0.443 | 0.422
7 | NCI-H3122 | 0.76 | 0.741 | 0.542 | 0.319 | 1.02 | 1.04 | 1.04 | 1.06 | 1.06 | 1.09 | 1.03 | 1.03 | 1.02 | 1.08 | 0.671 | 0.682 | 0.62 | 0.441
8 | EPLC-272H | 0.938 | 1.01 | 0.928 | 0.92 | 0.878 | 0.806 | 0.924 | 0.927 | 0.728 | 1.31 | 1.17 | 0.995 | 1.21 | 1.09 | 0.711 | 0.809 | 0.802 | 0.422
9 | EBC-1 | 0.819 | 0.783 | 0.653 | 0.561 | 0.597 | 0.586 | 0.508 | 0.456 | 0.448 | 0.981 | 1.08 | 0.821 | 0.905 | 0.764 | 0.771 | 0.635 | 0.646 | 0.382

Reference: the supplement of paper PMC10307832
